Format in all cases: cell-based
For one test, the target named is T1, human TLR7 (Homo sapiens, UniProt Q9NYK1).
T1 construct: host or cells: HEK-Blue cells
T1 sequence (Q9NYK1 27-1049): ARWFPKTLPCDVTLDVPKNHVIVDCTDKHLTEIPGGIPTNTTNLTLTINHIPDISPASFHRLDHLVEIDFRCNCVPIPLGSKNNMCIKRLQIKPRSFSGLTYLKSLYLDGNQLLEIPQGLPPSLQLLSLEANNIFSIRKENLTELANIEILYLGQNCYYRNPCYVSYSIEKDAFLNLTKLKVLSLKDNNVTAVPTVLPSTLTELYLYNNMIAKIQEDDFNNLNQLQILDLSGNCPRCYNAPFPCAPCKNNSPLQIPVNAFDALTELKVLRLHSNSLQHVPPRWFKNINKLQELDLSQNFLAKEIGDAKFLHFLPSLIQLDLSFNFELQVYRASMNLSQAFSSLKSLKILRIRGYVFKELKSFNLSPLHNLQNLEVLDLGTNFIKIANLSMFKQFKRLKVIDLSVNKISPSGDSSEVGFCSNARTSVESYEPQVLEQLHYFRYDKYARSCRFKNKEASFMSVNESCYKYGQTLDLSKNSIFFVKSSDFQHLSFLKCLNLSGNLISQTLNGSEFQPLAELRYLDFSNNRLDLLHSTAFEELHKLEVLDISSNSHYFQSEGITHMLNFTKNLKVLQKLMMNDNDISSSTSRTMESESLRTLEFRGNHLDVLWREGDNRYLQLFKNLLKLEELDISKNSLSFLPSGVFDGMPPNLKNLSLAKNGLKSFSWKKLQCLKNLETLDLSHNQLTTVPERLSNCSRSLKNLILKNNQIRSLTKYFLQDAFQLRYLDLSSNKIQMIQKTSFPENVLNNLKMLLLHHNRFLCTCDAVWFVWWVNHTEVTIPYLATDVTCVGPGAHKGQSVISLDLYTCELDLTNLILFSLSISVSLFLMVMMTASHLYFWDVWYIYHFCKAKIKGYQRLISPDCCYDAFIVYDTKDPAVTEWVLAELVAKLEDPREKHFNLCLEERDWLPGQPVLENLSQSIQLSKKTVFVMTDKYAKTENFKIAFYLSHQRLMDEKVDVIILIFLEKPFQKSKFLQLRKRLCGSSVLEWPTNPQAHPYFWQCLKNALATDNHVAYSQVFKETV
The experiment in a line: TLR7 inhibition reporter assay (HEK-Blue cells, SEAP reporter, gardiquimod stimulation). The conditions noted are these: HEK-Blue cells overexpressing human TLR7, SEAP reporter, gardiquimod 7.5 μM. Summed up:
(§1)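 Ligand levels: TLR7 gardiquimod 7.5 μM, TLR8 R848 15.9 μM, TLR9 ODN2006 5 nM, added after 30 min room-temperature compound pre-incubation at 0.05 nM-50 μM. Reporter SEAP read with HEK-Blue Detection reagent after 22 h, 37° C. Inhibition expressed as % reduction relative to agonist-plus-DMSO and known-inhibitor controls.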

A further test addresses T2, human TLR8 (Homo sapiens, UniProt Q9NR97).
T2 construct: host or cells: HEK-Blue cells
T2 sequence (Q9NR97 27-1041): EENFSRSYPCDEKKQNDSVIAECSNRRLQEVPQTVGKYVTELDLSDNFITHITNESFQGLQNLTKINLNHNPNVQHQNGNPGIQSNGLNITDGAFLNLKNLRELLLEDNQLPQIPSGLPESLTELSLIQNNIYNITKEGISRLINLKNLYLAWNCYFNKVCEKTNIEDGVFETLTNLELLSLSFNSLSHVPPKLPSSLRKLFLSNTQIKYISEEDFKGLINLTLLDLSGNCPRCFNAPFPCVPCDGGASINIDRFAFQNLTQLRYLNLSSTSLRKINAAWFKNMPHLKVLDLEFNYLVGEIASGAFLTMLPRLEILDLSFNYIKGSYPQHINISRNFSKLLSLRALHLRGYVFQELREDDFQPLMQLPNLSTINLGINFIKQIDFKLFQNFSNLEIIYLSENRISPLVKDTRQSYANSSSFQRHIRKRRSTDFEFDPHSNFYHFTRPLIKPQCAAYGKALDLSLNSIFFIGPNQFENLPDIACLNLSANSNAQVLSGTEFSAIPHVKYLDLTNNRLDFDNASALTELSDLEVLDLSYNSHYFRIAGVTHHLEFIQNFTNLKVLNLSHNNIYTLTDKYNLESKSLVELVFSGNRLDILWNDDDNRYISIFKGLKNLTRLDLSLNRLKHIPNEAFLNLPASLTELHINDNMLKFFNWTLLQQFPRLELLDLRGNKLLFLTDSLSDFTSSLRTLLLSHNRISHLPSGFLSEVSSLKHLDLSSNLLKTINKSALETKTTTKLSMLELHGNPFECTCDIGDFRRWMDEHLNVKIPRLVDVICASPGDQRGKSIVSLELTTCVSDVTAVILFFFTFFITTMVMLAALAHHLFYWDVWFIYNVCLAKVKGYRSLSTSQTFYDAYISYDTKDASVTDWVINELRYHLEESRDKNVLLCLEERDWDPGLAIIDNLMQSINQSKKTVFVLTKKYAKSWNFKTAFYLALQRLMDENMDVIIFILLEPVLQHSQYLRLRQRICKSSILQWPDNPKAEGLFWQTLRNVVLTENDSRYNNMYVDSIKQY
The experiment in a line: TLR8 inhibition reporter assay (HEK-Blue cells, SEAP reporter, R848 stimulation). The conditions noted are these: HEK-Blue cells overexpressing human TLR8, SEAP reporter, R848 15.9 μM. Summed up:
as §1

In another test the target is T3, human TLR9 (Homo sapiens, UniProt Q9NR96).
T3 construct: host or cells: HEK-Blue cells
T3 sequence (Q9NR96 26-1032): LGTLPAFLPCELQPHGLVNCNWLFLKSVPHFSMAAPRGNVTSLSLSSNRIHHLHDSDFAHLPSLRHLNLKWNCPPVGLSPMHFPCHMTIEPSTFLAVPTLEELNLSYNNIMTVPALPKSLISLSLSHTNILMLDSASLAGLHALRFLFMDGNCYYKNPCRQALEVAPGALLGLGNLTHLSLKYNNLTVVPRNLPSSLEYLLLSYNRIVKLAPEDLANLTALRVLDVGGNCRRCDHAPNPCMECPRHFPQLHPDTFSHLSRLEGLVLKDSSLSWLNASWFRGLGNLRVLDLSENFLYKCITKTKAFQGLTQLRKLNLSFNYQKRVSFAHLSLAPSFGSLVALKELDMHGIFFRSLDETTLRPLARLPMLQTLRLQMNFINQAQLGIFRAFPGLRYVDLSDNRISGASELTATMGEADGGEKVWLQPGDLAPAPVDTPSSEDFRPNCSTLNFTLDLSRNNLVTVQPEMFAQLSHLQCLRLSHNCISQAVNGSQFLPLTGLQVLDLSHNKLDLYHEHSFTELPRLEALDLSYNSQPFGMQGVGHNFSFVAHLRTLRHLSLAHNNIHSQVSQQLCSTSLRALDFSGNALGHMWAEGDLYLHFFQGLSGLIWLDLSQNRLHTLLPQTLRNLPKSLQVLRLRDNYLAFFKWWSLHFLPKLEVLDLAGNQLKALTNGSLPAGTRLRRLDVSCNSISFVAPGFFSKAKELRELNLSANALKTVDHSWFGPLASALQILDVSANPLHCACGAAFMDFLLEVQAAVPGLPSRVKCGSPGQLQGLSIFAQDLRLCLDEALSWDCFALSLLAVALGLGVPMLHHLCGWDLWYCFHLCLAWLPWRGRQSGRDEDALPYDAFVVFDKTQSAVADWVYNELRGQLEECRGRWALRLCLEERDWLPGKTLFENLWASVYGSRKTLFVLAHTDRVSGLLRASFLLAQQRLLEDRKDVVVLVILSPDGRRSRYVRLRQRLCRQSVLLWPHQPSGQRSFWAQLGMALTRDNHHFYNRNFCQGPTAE
The experiment in a line: TLR9 inhibition reporter assay (HEK-Blue cells, SEAP reporter, ODN2006 stimulation). Particulars: HEK-Blue cells overexpressing human TLR9, SEAP reporter, ODN2006 5 nM. The method, boiled down:
as §1
Background: A reporter such as luciferase makes a cellular process visible.

Molecules are shown by their SMILES.

As for `Cc1cc(-c2[nH]c3ccc(C4CCC(NCC(C)(C)O)CC4)cc3c2C(C)C)cn2ncnc12` (stereo not drawn) [Example 104], the values for the IC50 against human TLR7, against human TLR8 and on human TLR9 were 3 nM, 6.5 nM and 6410 nM, respectively.

Turning to `Cc1c(-c2[nH]c3ccc(C4CCC(N(C)C)CC4)cc3c2C(C)C)cn2ncnc2c1C` (stereo not drawn) [Example 105], the figures for the 50% inhibitory concentration (IC50) on human TLR7, against human TLR8 and against human TLR9 were 0.75 nM, 1.8 nM and 2070 nM, respectively.

As for `Cc1c(-c2[nH]c3ccc(C4CCC(NCC(C)(C)O)CC4)cc3c2C(C)C)cn2ncnc2c1C` (stereo not drawn) [Example 106], the results for the IC50 on human TLR7, at human TLR8 and against human TLR9 were 0.67 nM, 0.28 nM and 1390 nM, respectively.

On to `COc1cc(-c2[nH]c3ccc(C4CCC(NCC(N)=O)CC4)cc3c2C(C)C)cn2ncnc12` (stereo not drawn) [Example 107], for which the half-maximal inhibitory concentration (IC50) (commonly the midpoint of a concentration-inhibition curve) on human TLR7 worked out at 0.22 nM; on human TLR8, 1.5 nM; on human TLR9, 1390 nM.

For the compound `COc1cc(-c2[nH]c3ccc(C4CCC(NCC(N)=O)CC4)cc3c2C(C)C)cn2ncnc12` (stereo not drawn) [Example 109], the values for the half-maximal inhibitory concentration (IC50) at human TLR7, against human TLR8 and against human TLR9 were 0.83 nM, 4.1 nM and 1600 nM, respectively.

As to `Cc1c(-c2[nH]c3ccc(C4CCC(N(C)C)CC4)cc3c2C(C)C)cn2ncnc2c1C` (stereo not drawn) [Example 111], the IC50 is 1 nM at human TLR7, 2.6 nM on human TLR8 and 4100 nM against human TLR9.

Consider `Cc1c(-c2[nH]c3ccc(C4CCC(NCC(C)(C)O)CC4)cc3c2C(C)C)cn2ncnc2c1C` (stereo not drawn) [Example 112], for which the results for the IC50 at human TLR7, against human TLR8 and against human TLR9 were 6 nM, 2 nM and 2320 nM, respectively.

Consider `Cc1c(-c2[nH]c3ccc(C4CCC(N5CC6(COC6)C5)CC4)cc3c2C(C)C)cn2ncnc2c1C` (stereo not drawn) [Example 113], for which the IC50 on human TLR7 was determined as 1 nM; against human TLR8, 0.79 nM; on human TLR9 it was 3250 nM.

Consider `COc1cc(-c2[nH]c3ccc(C4CCC(NS(C)(=O)=O)CC4)cc3c2C(C)C)cn2ncnc12` (stereo not drawn) [Example 117, N-(4-(3-isopropyl-2-(8-methoxy-[1,2,4]triazolo[1,5-a]pyridin-6-yl)-1H-indol-5-yl)cyclohexyl)methanesulfonamide], for which the IC50 against human TLR7 stood at 0.7 nM; at human TLR8 it was 9.8 nM; against human TLR9 it was 14100 nM.

In the case of `COc1cc(-c2[nH]c3ccc(C4CCC(NC(=O)CC(F)(F)F)CC4)cc3c2C(C)C)cn2ncnc12` (stereo not drawn) [Example 118, 3,3,3-trifluoro-N-(4-(3-isopropyl-2-(8-methoxy-[1,2,4]triazolo[1,5-a]pyridin-6-yl)-1H-indol-5-yl)cyclohexyl)propanamide], the values for the IC50 at human TLR7, against human TLR8 and on human TLR9 were 2 nM, 22 nM and 15600 nM, respectively.

In the case of `Cc1cc(-c2[nH]c3ccc(C4CCC(NC(=O)CN(C)C)CC4)cc3c2C(C)C)cc(C)n1` (stereo not drawn) [Example 119], the figures for the IC50 on human TLR7, against human TLR8 and against human TLR9 were 0.95 nM, 7.2 nM and 976 nM, respectively.

In the case of `Cc1cc(-c2[nH]c3ccc(C4CCC(NC(=O)CN(C)C)CC4)cc3c2C(C)C)cc(C)n1` (stereo not drawn) [Example 120], the figures for the 50% inhibitory concentration (IC50) on human TLR7, against human TLR8 and against human TLR9 were 4 nM, 21 nM and 323 nM, respectively.

As to `Cc1cc(-c2[nH]c3ccc(C4CCC(NC(=O)CN(C)C)CC4)cc3c2C(C)C)cn2ncnc12` (stereo not drawn) [Example 121], the half-maximal inhibitory concentration (IC50) on human TLR7 is 0.41 nM; on human TLR8, 2.6 nM; at human TLR9 it was 7150 nM.

For the compound `COc1cc(-c2[nH]c3ccc(C4CCC(NC(=O)CN(C)C)CC4)cc3c2C(C)C)cn2ncnc12` (stereo not drawn) [Example 122], the IC50 worked out at 0.24 nM at human TLR7, 2.4 nM at human TLR8 and 8700 nM at human TLR9.

In the case of `Cc1c(-c2[nH]c3ccc(C4CCC(NC(=O)CN(C)C)CC4)cc3c2C(C)C)cn2ncnc2c1C` (stereo not drawn) [Example 123], the IC50 against human TLR7 is 0.52 nM; against human TLR8 it was 1 nM; against human TLR9, over 50000 nM.

Consider `Cc1c(-c2[nH]c3ccc(C4CCC(NC(=O)CN(C)C)CC4)cc3c2C(C)C)cn2ncnc2c1C` (stereo not drawn) [Example 124], for which the half-maximal inhibitory concentration (IC50) is 9 nM at human TLR7, 12 nM against human TLR8 and 8180 nM against human TLR9.

Take `CCN(CC)CC(=O)NC1CCC(c2ccc3[nH]c(-c4cn5ncnc5c(C)c4C)c(C(C)C)c3c2)CC1` (stereo not drawn) [Example 125]: the half-maximal inhibitory concentration (IC50) came out at 11 nM against human TLR7, 10 nM at human TLR8 and 6980 nM on human TLR9.

In the case of `CCN(CC)CC(=O)NC1CCC(c2ccc3[nH]c(-c4cn5ncnc5c(C)c4C)c(C(C)C)c3c2)CC1` (stereo not drawn) [Example 126], the results for the IC50 against human TLR7, against human TLR8 and at human TLR9 were 0.51 nM, 2.3 nM and over 50000 nM, respectively.

Consider `COc1cc(-c2[nH]c3ccc(C4CCC(NC(=O)CN(C)C)CC4)cc3c2C(C)C)cn2ncnc12` (stereo not drawn) [Example 127], for which the half-maximal inhibitory concentration (IC50) against human TLR7 was 2 nM; on human TLR8 it was 3.2 nM; against human TLR9 it was 3160 nM.

`CNCC(=O)NC1CCC(c2ccc3[nH]c(-c4cn5ncnc5c(C)c4C)c(C(C)C)c3c2)CC1` (stereo not drawn) [Example 128, N-(4-(2-(7,8-dimethyl-[1,2,4]triazolo[1,5-a]pyridin-6-yl)-3-isopropyl-1H-indol-5-yl)cyclohexyl)-2-(methylamino)acetamide]: the concentration for half-maximal inhibition (IC50) worked out at 0.37 nM on human TLR7, 1.4 nM on human TLR8 and 2250 nM at human TLR9.

The record behind these values is patent publication US11878975B2, “Substituted indole compounds useful as TLR inhibitors” (BRISTOL-MYERS SQUIBB COMPANY, priority 2017, dated 2024).
